Test [1] addresses T1, N-type calcium channel (NTCC) (Homo sapiens, UniProt Q00975).
T1 construct: host or cells: IMR32 cells, differentiated with dibutyryl cAMP and bromodeoxyuridine
Put plainly: FLIPR calcium mobilization assay for N-type calcium channel. The test is classed as cell-based. The conditions noted are these: calcium mobilization in vitro assay; differentiated IMR32 cells, 5 μM nitrendipine, 90 mM KCl. The method, then:
Cell maintenance and differentiation. Unless noted otherwise, cell culture reagents were purchased from Mediatech of Herndon, Md. IMR32 cells (American Type Culture Collection, ATCC, Manassas, Va.) were routinely cultured in growth medium consisting of minimum essential medium containing 10% fetal bovine serum (FBS, Hyclone, Logan, Utah), 100 U/mL penicillin, 100 μg/mL streptomycin, 2 mM L-glutamine, 1 mM sodium pyruvate, and 1×MEM non-essential amino acids. 80-90% confluent flasks of cells were differentiated using the following differentiation medium: Growth medium plus 1 mM dibutyryl cyclic AMP (Sigma, St. Louis, Mo.), and 2.5 μM bromodeoxyuridine (Sigma). Cells were differentiated for 8 days by replacing differentiation medium every 2-3 days.
FLIPR Calcium Mobilization Assay for N-type Calcium Channel. One day prior to performing this assay, differentiated IMR32 cells were treated with 1× CellStripper, and seeded on poly-D-lysine-coated 96-well clear-bottom black plates (Becton Dickinson, Franklin Lakes, N.J.) at 200,000 cells/well. […] Plates were then transferred to a Fluorimetric Imaging Plate Reader (FLIPR^96, Molecular Devices, Inc., Sunnyvale, Calif.) for assay. The FLIPR measured basal Fluo-4 fluorescence for 315 seconds (i.e., 5 minutes and 15 seconds), then added 0.1 mL KCl agonist dissolved in IMR32 buffer and measured fluorescence for another 45 seconds. Final test compound concentrations on the cells after FLIPR read ranged from about 846 pM to about 17 μM, final nitrendipine concentration was 5 μM, and final KCl concentration was 90 mM. Data were collected over the entire time course and analyzed using Excel, Graph Pad Prism (version 3.02, Graph Pad, San Diego, Calif.), or an in-house non-linear regression analysis software.

Test [2] has as its target T2, L-type calcium channel (LTCC) (Rattus norvegicus, UniProt P22002).
T2 construct: The 6.5 kb cDNA encoding the L-type calcium channel α1c subunit was cloned by PCR amplification from rat heart cDNA; expressed in transfected cells
Put plainly: FLIPR calcium mobilization assay for L-type calcium channel. The test is classed as cell-based. Conditions: calcium mobilization in vitro assay; HEK293 cells expressing recombinant rat LTCC subunits (α1c, α2δ, β1), 90 mM KCl. The method, then:
Recombinant human embryonal kidney cells (HEK293, ATCC) stably transfected with either N-type calcium channel (NTCC) subunits (α1b, α2δ, and (β3) or L-type calcium channel (LTCC) subunits (α1c, α2δ, and β1) were routinely cultured in growth medium consisting of Dulbecco's Modified Eagles Medium containing 10% FBS, 100 U/mL penicillin, 100 μg/mL streptomycin, 4 mM L-glutamine, 500 μg/mL geneticin (G418), 20 μg/mL Blasticidin S (InVivogen, San Diego, Calif.) and 500 μg/mL zeocin (InVivogen).
FLIPR Calcium Mobilization Assay for L-type Calcium Channel. One day prior to performing this assay, HEK293 cells stably expressing recombinant rat L-type calcium channel (LTCC) subunits (α1c, α2δ, and β1) were trypsinized, then seeded on poly-D-lysine-coated 96-well clear-bottom black plates (Becton Dickinson, Franklin Lakes, N.J.) at 75,000 cells/well. On the day of the assay, the plates were washed with LTCC wash buffer (127 mM NaCl, 2 mM MgCl2, 700 μM NaH2PO4, 5 mM CaCl2, 5 mM NaHCO3, 8 mM HEPES, 10 mM glucose, pH 7.4), then loaded with 0.1 mL of LTCC wash buffer containing Fluo-4 (3 μM final concentration, Molecular Probes, Eugene, Oreg.). After 1 hour, the cells were washed with 0.1 mL LTCC wash buffer and resuspended in 0.05 mL LTCC assay buffer (same composition as LTCC wash buffer). Plates were then transferred to a FLIPR^96 for assay. The FLIPR measured basal Fluo-4 fluorescence for 15 seconds, then added 0.05 mL of each compound tested diluted in LTCC assay buffer at final concentrations ranging from about 846 pM to about 17 μM. Fluo-4 fluorescence was then measured for 5 minutes. 0.1 mL KCl agonist dissolved in LTCC assay buffer was then added to the cells to produce a final concentration of 90 mM KCl, and fluorescence was measured for another 45 seconds. Data were collected over the entire time course and analyzed using Excel, Graph Pad Prism, or an in-house regression analysis software.

T2 sequence (P22002 whole entry): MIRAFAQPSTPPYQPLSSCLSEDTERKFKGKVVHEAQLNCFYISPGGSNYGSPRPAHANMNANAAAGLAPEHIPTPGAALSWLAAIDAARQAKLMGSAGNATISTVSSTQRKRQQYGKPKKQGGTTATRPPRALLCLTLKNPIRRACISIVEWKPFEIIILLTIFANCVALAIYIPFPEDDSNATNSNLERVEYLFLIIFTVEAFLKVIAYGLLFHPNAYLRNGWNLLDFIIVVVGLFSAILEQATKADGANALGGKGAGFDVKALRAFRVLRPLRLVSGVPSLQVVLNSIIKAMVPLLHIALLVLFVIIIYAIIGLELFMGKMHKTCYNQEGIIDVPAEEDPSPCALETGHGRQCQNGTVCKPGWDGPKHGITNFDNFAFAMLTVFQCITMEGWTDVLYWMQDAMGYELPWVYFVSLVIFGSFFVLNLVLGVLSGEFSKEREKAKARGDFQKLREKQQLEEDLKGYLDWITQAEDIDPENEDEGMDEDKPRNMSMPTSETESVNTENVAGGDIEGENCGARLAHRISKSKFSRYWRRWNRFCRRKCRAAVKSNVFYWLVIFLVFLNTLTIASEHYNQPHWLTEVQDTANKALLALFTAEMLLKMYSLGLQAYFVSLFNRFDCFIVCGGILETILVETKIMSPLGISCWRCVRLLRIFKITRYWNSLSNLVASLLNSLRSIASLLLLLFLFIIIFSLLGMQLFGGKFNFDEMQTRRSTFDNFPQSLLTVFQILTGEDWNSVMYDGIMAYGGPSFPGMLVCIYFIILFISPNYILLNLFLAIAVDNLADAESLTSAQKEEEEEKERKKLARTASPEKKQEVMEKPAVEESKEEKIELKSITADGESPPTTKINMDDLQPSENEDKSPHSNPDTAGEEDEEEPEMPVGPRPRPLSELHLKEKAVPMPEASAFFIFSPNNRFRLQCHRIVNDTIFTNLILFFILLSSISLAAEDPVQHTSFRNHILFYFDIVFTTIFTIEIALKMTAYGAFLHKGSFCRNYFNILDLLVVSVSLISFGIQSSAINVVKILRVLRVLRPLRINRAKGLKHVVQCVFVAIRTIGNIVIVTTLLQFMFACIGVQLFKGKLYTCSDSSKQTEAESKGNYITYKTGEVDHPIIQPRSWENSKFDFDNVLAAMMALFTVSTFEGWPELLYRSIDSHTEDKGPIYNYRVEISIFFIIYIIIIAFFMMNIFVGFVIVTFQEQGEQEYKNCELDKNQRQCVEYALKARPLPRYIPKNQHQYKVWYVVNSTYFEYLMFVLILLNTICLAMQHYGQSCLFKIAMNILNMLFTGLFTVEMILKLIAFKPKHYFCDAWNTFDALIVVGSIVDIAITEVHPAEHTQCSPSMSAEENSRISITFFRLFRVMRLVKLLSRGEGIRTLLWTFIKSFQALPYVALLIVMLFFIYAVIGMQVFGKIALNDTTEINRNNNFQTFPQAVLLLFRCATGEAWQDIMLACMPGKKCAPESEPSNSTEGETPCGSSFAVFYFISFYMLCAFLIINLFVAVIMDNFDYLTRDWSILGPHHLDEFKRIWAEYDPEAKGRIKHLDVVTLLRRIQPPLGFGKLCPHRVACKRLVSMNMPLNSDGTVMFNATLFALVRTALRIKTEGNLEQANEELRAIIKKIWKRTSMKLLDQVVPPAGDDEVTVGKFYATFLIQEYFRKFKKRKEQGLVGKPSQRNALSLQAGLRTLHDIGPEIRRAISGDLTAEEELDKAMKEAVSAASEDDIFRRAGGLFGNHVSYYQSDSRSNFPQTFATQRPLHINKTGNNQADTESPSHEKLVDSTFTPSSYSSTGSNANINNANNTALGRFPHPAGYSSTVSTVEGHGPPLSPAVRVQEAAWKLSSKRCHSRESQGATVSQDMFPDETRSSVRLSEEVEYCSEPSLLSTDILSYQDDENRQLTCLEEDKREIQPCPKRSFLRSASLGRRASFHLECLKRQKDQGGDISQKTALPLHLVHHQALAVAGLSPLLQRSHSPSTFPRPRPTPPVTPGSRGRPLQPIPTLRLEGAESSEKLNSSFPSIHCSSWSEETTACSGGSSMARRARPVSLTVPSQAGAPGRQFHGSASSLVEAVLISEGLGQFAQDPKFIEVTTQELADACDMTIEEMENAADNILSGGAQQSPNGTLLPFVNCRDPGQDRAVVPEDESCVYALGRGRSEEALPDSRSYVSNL

Regarding `O=S(=O)(c1ccc(OC(F)(F)F)cc1)N1CCC(ON=C(c2ccc(F)cc2)c2ccc(F)cc2)CC1` [Example 3, Bis(4-fluorophenyl)methanone O-1-(4-(trifluoromethoxy)phenylsulfonyl)piperidin-4-yl oxime], the IC50 is 0.1 µM in test [1] and over 20 µM in test [2].
On the same counts, the results for `N#Cc1cccc(C(=NOC2CCN(S(=O)(=O)c3ccc(OC(F)(F)F)cc3)CC2)C2CC2)c1` (racemic) [Example 2, 3-(Cyclopropyl(1-(4-(trifluoromethoxy)phenylsulfonyl)piperidin-4-yloxyimino)methyl)benzonitrile] are 0.2 µM and over 20 µM.
On the same counts, the results for `C/C(=N\OC1CCN(S(=O)(=O)c2ccc(OC(F)(F)F)cc2)CC1)c1cccc(C#N)c1` [Example 4, (E)-3-(1-(1-(4-(Trifluoromethoxy)phenylsulfonyl)piperidin-4-yloxyimino)ethyl)benzonitrile] are 0.18 µM and over 20 µM.
